Read-outs that look alike come from different tables or passages of the source.
Columns and labels:
[1] = system: bovine articular cartilage treated with Interleukin 1 alpha (IL-1α); experiment: Bovine articular cartilage explant cultures: inhibition of degradation of proteoglycan; assay type: cell-based; conditions: inhibitory effect expressed as percentage, concentration not printed
Description: This in vitro procedure was used to evaluate the effect and relative potencies of small molecule compounds to inhibit the degradation of proteoglycan in articular cartilage treated with Interleukin 1 alpha (IL-1α). Treatment of articular cartilage with IL 1α induces expression of a cascade of enzymes that initiates cartilage matrix degradation. This assay was utilized to select small molecule compounds that inhibit the enzyme activity and protects cartilage matrix degradation.
Articular cartilage: bovine metacarpal joints were disinfected with 10% Wescodyne followed by 70% ethanol. 6 mm articular cartilage discs were prepared and rinsed once in PBS and medium, respectively. The discs were cultured in a stirring flask with serum-free medium for 5 days for equilibrium with one medium change. Small molecule compounds: stock solutions of test small molecule compounds (usually at 5 mg/ml) were prepared in DMSO. Working solutions were diluted with DMSO and generally ranged from 0.1 μg/ml to 10 ug/ml. The DMSO stocks were stored at […]. Articular cartilage explant culture medium: DMEM, 2 mM glutamax, 100 U/ml of antibiotic and antimycotic, 50 μg/ml ascorbate and 10 mM Hepes (pH-7.0). Proteoglycan content-Dimethyl methylene blue (DMMB) solution: […] DMMB, 10 ml 100% ethanol, 29.5 ml of 1M NaOH, 3.5 ml of 98% formic acid and water to 1 L. Chondroitin sulphate sodium salt: 1.56-200 ug/ml serial dilutions.
For the explant culture, cartilage discs were cultured in serum-free medium for 48 h or more. Discs were weighed and transferred to a 96-well plate, 1 disc per-well. 0.2 ml of medium containing 5 ng/ml of IL-1 and different concentrations of compounds were added to each well, with 3 wells allocated for each treatment. The medium was collected at days 1, 2, & 3 and replaced accordingly.
For the DMMB assay, conditioned medium (CM) samples were diluted with medium. 10 ul of each standard or diluted sample was added in duplicate into a 96-well-plate and 200 μl of DMMB solution was added into each well. Absorbance at 520 nm was measured for each well. Proteoglycan contents in CM were calculated daily.
The proteoglycan contents are expressed as ug per mg of cartilage. The inhibitory effect of the compounds is expressed as percentage. (See, Tortorella, M. D. et al., Science 1999, 284, 1664-1666).

[2] = target: T1, purified recombinant human Aggrecanase-1 (rAgg1) (Homo sapiens, UniProt O75173); experiment: In vitro fluorescence screen for Aggrecanase-1 inhibitors; assay type: biochemical; conditions: for IC50: read-out: Agg1 IC50
T1 sequence (O75173 213-837): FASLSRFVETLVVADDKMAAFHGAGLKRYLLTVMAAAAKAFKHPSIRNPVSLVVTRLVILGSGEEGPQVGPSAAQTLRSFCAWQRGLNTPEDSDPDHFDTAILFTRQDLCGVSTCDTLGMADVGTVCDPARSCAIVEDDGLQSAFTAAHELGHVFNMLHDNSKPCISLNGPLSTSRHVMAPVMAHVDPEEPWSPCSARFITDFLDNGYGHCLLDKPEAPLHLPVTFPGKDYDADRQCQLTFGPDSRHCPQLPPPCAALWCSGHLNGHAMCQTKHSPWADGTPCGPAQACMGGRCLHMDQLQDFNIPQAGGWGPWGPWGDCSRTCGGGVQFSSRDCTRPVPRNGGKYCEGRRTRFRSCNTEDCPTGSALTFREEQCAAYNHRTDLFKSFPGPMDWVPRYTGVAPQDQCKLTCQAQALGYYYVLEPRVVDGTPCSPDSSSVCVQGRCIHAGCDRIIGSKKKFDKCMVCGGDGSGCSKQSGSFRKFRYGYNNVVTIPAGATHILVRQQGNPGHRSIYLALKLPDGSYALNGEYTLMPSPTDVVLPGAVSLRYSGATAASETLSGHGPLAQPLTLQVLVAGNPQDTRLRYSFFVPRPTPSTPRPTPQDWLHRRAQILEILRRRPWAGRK

[3] = target: T2, purified recombinant human Aggrecanase-2 (Ag2t-Phe628-Strep) (Homo sapiens, UniProt Q9UNA0); experiment: In vitro fluorescence screen for Aggrecanase-2 inhibitors; assay type: biochemical; conditions: for IC50: read-out: Agg 2 IC50; for Ki: read-out: Ki Agg2
T2 construct: the form used is denoted as Ag2t-Phe628-Strep (MW=41,737)
T2 sequence (Q9UNA0 262-628): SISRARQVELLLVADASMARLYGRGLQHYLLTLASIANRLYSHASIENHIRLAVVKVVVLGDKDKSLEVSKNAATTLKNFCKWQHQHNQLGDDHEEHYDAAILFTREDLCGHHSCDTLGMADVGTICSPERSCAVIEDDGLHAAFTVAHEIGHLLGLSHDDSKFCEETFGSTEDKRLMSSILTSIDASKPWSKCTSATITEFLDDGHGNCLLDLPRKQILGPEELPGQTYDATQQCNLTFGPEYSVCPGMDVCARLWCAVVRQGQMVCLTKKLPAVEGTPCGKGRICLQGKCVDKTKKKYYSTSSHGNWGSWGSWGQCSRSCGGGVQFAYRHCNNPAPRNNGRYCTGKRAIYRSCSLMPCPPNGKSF

[4] = target: T3, recombinant human catalytic domain of MMP-13 (Homo sapiens, UniProt P45452); experiment: In vitro fluorescence assay of MMP-13 activity; assay type: biochemical; conditions: Table 2; nM printed in one cell only
T3 construct: catalytic domain of MMP-13 (165 amino acids, residues 104-268, 19 kDa)

[5] = Table 1, first of two columns headed bovine
[6] = Table 1, second of two columns headed bovine
[7] = Table 1, enzyme not given, column follows Agg1 IC50, read-out: Ki

Row | Structure (SMILES) | IC50 ([2]; Table 1) | IC50 ([3]; Table 3) | Ki ([3]; Table 3) | IC50 ([2]; Table 3) | Ki ([2]; Table 3, read-out: Ki Agg1) | bovine [1, 5] | bovine [1, 6] | further results
1 | O=C(O)CC[C@H](NC(=O)c1ccc(-c2ccccc2)cc1)C(=O)NCc1ccc(F)c(F)c1 [Example 8AAA, N^2-(1,1′-biphenyl-4-ylcarbonyl)-N^1-(3,4-difluorobenzyl)-L-α-glutamine] | 48 nM |  |  |  |  | 83% | 55% | Ki [2, 7]: 44 nM
2 | CN(C)c1cccc(CNC(=O)[C@H](CCC(=O)O)NC(=O)c2ccc(-c3ccccc3)cc2)c1 [Example 8BBBB, N^2-(biphenyl-4-ylcarbonyl)-N^1-[3-(dimethylamino)benzyl]-L-α-glutamine] | 100 nM |  |  |  |  | 40% | 0% | 
3 | O=C(O)CC[C@H](NC(=O)c1ccc(-c2ccccc2)cc1)C(=O)NCC1CC1 [Example 8CCC, N^2-(1,1′-biphenyl-4-ylcarbonyl)-N^1-(cyclopropylmethyl)-L-α-glutamine] | 100 nM |  |  |  |  | 74% | 26% | 
4 | O=C(O)CC[C@H](NC(=O)c1ccc(-c2ccccc2)cc1)C(=O)NCCCc1ccccc1 [Example 8FF, N^2-(1,1′-biphenyl-4-ylcarbonyl)-N^1-(3-phenylpropyl)-L-α-glutamine] | 26 nM |  |  |  |  | 86% | 50% | Ki [2, 7]: 28 nM
5 | CCCNC(=O)[C@H](CCC(=O)O)NC(=O)c1ccc2c(c1)Cc1ccccc1-2 [Example 8FFFFF, N^2-(9H-fluoren-2-ylcarbonyl)-N^1-propyl-L-α-glutamine] |  |  |  |  |  |  |  | IC50 ([3]; Table 2): 710 nM; IC50 ([2]; Table 2): 92 nM; IC50 [4]: > 100000 nM
6 | O=C(O)CC[C@H](NC(=O)c1ccc(-c2ccccc2)cc1)C(=O)NCc1cccc(C(F)(F)F)c1 [Example 8GGG, N^2-(1,1′-biphenyl-4-ylcarbonyl)-N^1-[3-(trifluoromethyl)benzyl]-L-α-glutamine] | 100 nM |  |  |  |  | 57% | 12% | 
7 | O=C(O)CC[C@H](NC(=O)c1ccc(-c2ccccc2)cc1)C(=O)NCCCCc1ccccc1 [Example 8II, N^2-(1,1′-biphenyl-4-ylcarbonyl)-N^1-(4-phenylbutyl)-L-α-glutamine] | 44 nM |  |  |  |  | 75% | 40% | Ki [2, 7]: 39 nM
8 | O=C(O)CC[C@H](NC(=O)c1ccc(-c2ccccc2)cc1)C(=O)NCc1ccc(OC(F)(F)F)cc1 [Example 8T, N^2-(1,1′-biphenyl-4-ylcarbonyl)-N^1-[4-(trifluoromethoxy)benzyl]-L-α-glutamine] | 300 nM |  |  |  |  | 51% | 20% | 
9 | O=C(O)CC[C@H](NC(=O)c1ccc(-c2ccccc2)cc1)C(=O)NCc1cccc(OC(F)(F)F)c1 [Example 8U, N^2-(1,1′-biphenyl-4-ylcarbonyl)-N^1-[3-(trifluoromethoxy)benzyl]-L-α-glutamine] | 200 nM |  |  |  |  | 63% | 26% | 
10 | O=C(O)CC[C@H](NC(=O)c1ccc(-c2ccccc2)cc1)C(=O)NC1c2ccccc2-c2ccccc21 [Example 8YYYYY, N^2-(biphenyl-4-ylcarbonyl)-N^1-9H-fluoren-9-yl-L-α-glutamine] |  |  |  |  |  |  |  | IC50 ([3]; Table 2): 2800 nM; IC50 ([2]; Table 2): 87 nM; IC50 [4]: ~20000 nM
11 | CC(C)(Cc1ccc(F)cc1)NC(=O)[C@H](CCC(=O)O)NC(=O)c1ccc2c(c1)Cc1ccccc1-2 [Example 8ZZZZZ, N^2-(9H-fluoren-2-ylcarbonyl)-N^1-[2-(4-fluorophenyl)-1,1-dimethylethyl]-L-α-glutamine] |  |  |  |  |  |  |  | IC50 ([3]; Table 2): 63 nM; IC50 ([2]; Table 2): < 30 nM; IC50 [4]: > 100000 nM
12 | CC(C)(Cc1ccc(F)cc1)NC(=O)[C@H](CCC(=O)O)NC(=O)c1ccc(-c2cccc(Cl)c2)cc1 [N^2-[(3′-chlorobiphenyl-4-yl)carbonyl]-N-[2-(4-fluorophenyl)-1,1-dimethylethyl]-L-α-glutamine] |  | 200 nM | 157 nM | < 30 nM | 8.8 nM |  |  | 

Further lines, with some results ahead:

Row | IC50 ([2]; Table 1) | IC50 ([3]; Table 3) | Ki ([3]; Table 3) | IC50 ([2]; Table 3) | Ki ([2]; Table 3, read-out: Ki Agg1) | Structure (SMILES) | bovine [1, 5] | bovine [1, 6] | further results
13 |  | 77 nM | 81 nM | < 30 nM | 4.5 nM | CC(C)(Cc1ccc(F)cc1)NC(=O)[C@H](CCC(=O)O)NC(=O)c1ccc(-c2cccc(F)c2)cc1 [N^2-[(3′-fluorobiphenyl-4-yl)carbonyl]-N-[2-(4-fluorophenyl)-1,1-dimethylethyl]-L-α-glutamine] |  |  | 
14 |  | 59 nM | 54 nM | < 30 nM | 6.7 nM | CC(C)(Cc1ccc(F)cc1)NC(=O)[C@H](CCC(=O)O)NC(=O)c1ccc(-c2ccc(Cl)cc2)cc1 [N^2-[(4′-chlorobiphenyl-4-yl)carbonyl]-N-[2-(4-fluorophenyl)-1,1-dimethylethyl]-L-α-glutamine] |  |  | 
15 |  | 83 nM | 75 nM | < 30 nM | 6.9 nM | CC(C)(Cc1ccc(F)cc1)NC(=O)[C@H](CCC(=O)O)NC(=O)c1ccc(-c2ccc(F)cc2)cc1 [N^2-[(4′-fluorobiphenyl-4-yl)carbonyl]-N-[2-(4-fluorophenyl)-1,1-dimethylethyl]-L-α-glutamine] |  |  | 
16 |  | 60 to 200 nM | 156 nM | < 30 nM | < 3 nM | CC(C)(Cc1ccccc1)NC(=O)[C@H](CCC(=O)O)NC(=O)c1ccc(-c2ccc(F)c(Cl)c2)s1 [N^2-{[5-(3-chloro-4-fluorophenyl)-2-thienyl]carbonyl}-N-(1,1-dimethyl-2-phenylethyl)-L-α-glutamine] |  |  | 
17 |  | 3000 nM |  | 60 nM |  | CC(C)(Cc1ccc(Cl)cc1)NC(=O)[C@H](CCC(=O)O)NC(=O)c1ccc(-c2ccc(F)c(Cl)c2)s1 [N^2-{[5-(3-chloro-4-fluorophenyl)-2-thienyl]carbonyl}-N-[2-(4-chlorophenyl)-1,1-dimethylethyl]-L-α-glutamine] |  |  | 
18 |  | 98 nM | 45 nM | < 30 nM | 6.7 nM | CC(C)(Cc1ccc(F)cc1)NC(=O)[C@H](CCC(=O)O)NC(=O)c1ccc(-c2ccc(F)c(Cl)c2)s1 [N^2-{[5-(3-chloro-4-fluorophenyl)-2-thienyl]carbonyl}-N-[2-(4-fluorophenyl)-1,1-dimethylethyl]-L-α-glutamine] |  |  | 
19 |  | 100 to 300 nM | 359 nM | 20 to 70 nM | 37.6 nM | CC(C)(Cc1ccccc1)NC(=O)[C@H](CCC(=O)O)NC(=O)c1ccc(-c2ccc(Cl)s2)nc1 [N^2-{[6-(5-chloro-2-thienyl)pyridin-3-yl]carbonyl}-N-(1,1-dimethyl-2-phenylethyl)-L-α-glutamine] |  |  | 
